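All cell lines were grown in 96-well plates and treated with compound for 48 hours. GI50 marks 50% less growth.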 Calls of active or inactive are those of the source. Cut-off read from the data, not from the text of the source: active = GI50 up to about 1.1 µM and inactive = higher.
How the values were obtained:
Assay in all cases: NCI-60 cell line screen, 48 h
HOP-92 = test system: HOP-92
IGROV-1 = test system: IGROV-1
SK-MEL-28 = test system: SK-MEL-28
COLO 205 = test system: COLO 205
UACC-257 = test system: UACC-257
DLD-1 = test system: DLD-1
ACHN = test system: ACHN
NCI-H460 = test system: NCI-H460
KM-20L2 = test system: KM-20L2
KM12 = test system: KM12
HCT-116 = test system: HCT-116
SF-539 = test system: SF-539
SR = test system: SR
RXF 631 = test system: RXF 631
XF498 = test system: XF498
HCT-15 = test system: HCT-15
LXFL 529 = test system: LXFL 529
SK-MEL-5 = test system: SK-MEL-5
K562 = test system: K562
NCI-H522 = test system: NCI-H522
MOLT-4 = test system: MOLT-4
U-251 = test system: U-251
M14 = test system: M14
SK-OV-3 = test system: SK-OV-3
SNB-75 = test system: SNB-75
RXF 393 = test system: RXF 393
NCI-H23 = test system: NCI-H23
SN12C = test system: SN12C
OVCAR-8 = test system: OVCAR-8
CCRF-CEM = test system: CCRF-CEM
M19-MEL = test system: M19-MEL
TK-10 = test system: TK-10
UO-31 = test system: UO-31
SW-620 = test system: SW-620
UACC-62 = test system: UACC-62
HT-29 = test system: HT-29
OVCAR-3 = test system: OVCAR-3
HL-60 = test system: HL-60
A549 = test system: A549
SF-268 = test system: SF-268
DMS-273 = test system: DMS-273
LOX IMVI = test system: LOX IMVI
SK-MEL-2 = test system: SK-MEL-2
SF-295 = test system: SF-295
Malme-3M = test system: Malme-3M
RPMI-8226 = test system: RPMI-8226
HOP-62 = test system: HOP-62
OVCAR-4 = test system: OVCAR-4
EKVX = test system: EKVX
SNB-78 = test system: SNB-78
CAKI-1 = test system: CAKI-1
786-0 = test system: 786-0
SNB-19 = test system: SNB-19
A498 = test system: A498
HOP-18 = test system: HOP-18
OVCAR-5 = test system: OVCAR-5
NCI-H226 = test system: NCI-H226
HCC 2998 = test system: HCC 2998
DMS-114 = test system: DMS-114

SMILES: CN(C)CCC(/C=C/c1ccccc1)=N\Nc1ccc(Cl)c(Cl)c1
- GI50 (HOP-92): 1.41 µM (inactive)
- GI50 (IGROV-1): 3.04 µM (inactive)
- GI50 (SK-MEL-28): 9.33 µM (inactive)
- GI50 (COLO 205): 2.6 µM (inactive)
- GI50 (UACC-257): 3.33 µM (inactive)
- GI50 (DLD-1): 3.49 µM (inactive)
- GI50 (ACHN): 1.92 µM (inactive)
- GI50 (NCI-H460): 2.01 µM (inactive)
- GI50 (KM-20L2): 2.02 µM (inactive)
- GI50 (KM12): 2.05 µM (inactive)
- GI50 (HCT-116): 3.56 µM (inactive)
- GI50 (SF-539): 2.2 µM (inactive)
- GI50 (SR): 2.09 µM (inactive)
- GI50 (RXF 631): 2.37 µM (inactive)
- GI50 (XF498): 2.3 µM (inactive)
- GI50 (HCT-15): 3.6 µM
- GI50 (LXFL 529): 2 µM (inactive)
- GI50 (SK-MEL-5): 4.49 µM (inactive)
- GI50 (K562): 2.23 µM (inactive)
- GI50 (NCI-H522): 2.1 µM (inactive)
- GI50 (MOLT-4): 2.44 µM (inactive)
- GI50 (U-251): 4.59 µM (inactive)
- GI50 (M14): 2.72 µM (inactive)
- GI50 (SK-OV-3): 4.53 µM (inactive)
- GI50 (SNB-75): 2.27 µM (inactive)
- GI50 (RXF 393): 2.74 µM (inactive)
- GI50 (NCI-H23): 2.81 µM (inactive)
- GI50 (SN12C): 3.52 µM (inactive)
- GI50 (OVCAR-8): 2.7 µM (inactive)
- GI50 (CCRF-CEM): 2.91 µM (inactive)
- GI50 (M19-MEL): 4.31 µM (inactive)
- GI50 (TK-10): 2.38 µM (inactive)
- GI50 (UO-31): 1.64 µM (inactive)
- GI50 (SW-620): 3.45 µM (inactive)
- GI50 (UACC-62): 2.55 µM (inactive)
- GI50 (HT-29): 2.24 µM (inactive)
- GI50 (OVCAR-3): 4.27 µM (inactive)
- GI50 (HL-60): 2.7 µM (inactive)
- GI50 (A549): 3.13 µM (inactive)
- GI50 (SF-268): 2.56 µM (inactive)
- GI50 (DMS-273): 2.36 µM (inactive)
- GI50 (LOX IMVI): 1.99 µM (inactive)
- GI50 (SK-MEL-2): 2.49 µM (inactive)
- GI50 (SF-295): 3.78 µM (inactive)
- GI50 (Malme-3M): 14.2 µM (inactive)
- GI50 (RPMI-8226): 3.44 µM (inactive)
- GI50 (HOP-62): 3.15 µM (inactive)
- GI50 (OVCAR-4): 3.56 µM (inactive)
- GI50 (EKVX): 3.66 µM (inactive)
- GI50 (SNB-78): 3.58 µM (inactive)
- GI50 (CAKI-1): 2.61 µM (inactive)
- GI50 (786-0): 2.69 µM (inactive)
- GI50 (SNB-19): 5.53 µM (inactive)
- GI50 (A498): 4.63 µM (inactive)
- GI50 (HOP-18): 2.67 µM (inactive)
- GI50 (OVCAR-5): 3.33 µM (inactive)

SMILES: Cc1cccc(C)c1NC(=O)CCc1nnc2s/c(=C\c3ccc(Cl)cc3)c(=O)n12
- GI50 (HOP-92): > 100 µM (inactive)
- GI50 (IGROV-1): 72.1 µM (inactive)
- GI50 (SK-MEL-28): > 100 µM (inactive)
- GI50 (COLO 205): 92 µM (inactive)
- GI50 (UACC-257): > 100 µM (inactive)
- GI50 (DLD-1): 37.8 µM (inactive)
- GI50 (ACHN): > 100 µM (inactive)
- GI50 (NCI-H460): > 100 µM (inactive)
- GI50 (KM-20L2): > 100 µM (inactive)
- GI50 (KM12): > 100 µM (inactive)
- GI50 (HCT-116): 25.2 µM (inactive)
- GI50 (SF-539): 40.6 µM (inactive)
- GI50 (SR): > 100 µM (inactive)
- GI50 (XF498): 52.8 µM (inactive)
- GI50 (HCT-15): 19.1 µM
- GI50 (LXFL 529): 75.7 µM (inactive)
- GI50 (SK-MEL-5): > 100 µM (inactive)
- GI50 (K562): > 100 µM (inactive)
- GI50 (NCI-H522): > 100 µM (inactive)
- GI50 (MOLT-4): > 100 µM (inactive)
- GI50 (U-251): 83.9 µM (inactive)
- GI50 (NCI-H226): 97.5 µM (inactive)
- GI50 (M14): > 100 µM (inactive)
- GI50 (SK-OV-3): 31.8 µM (inactive)
- GI50 (SNB-75): 73.8 µM (inactive)
- GI50 (RXF 393): 36.8 µM (inactive)
- GI50 (NCI-H23): > 100 µM (inactive)
- GI50 (SN12C): > 100 µM (inactive)
- GI50 (OVCAR-8): > 100 µM (inactive)
- GI50 (CCRF-CEM): > 100 µM (inactive)
- GI50 (M19-MEL): > 100 µM (inactive)
- GI50 (TK-10): 42.3 µM (inactive)
- GI50 (UO-31): > 100 µM (inactive)
- GI50 (SW-620): 21.2 µM (inactive)
- GI50 (UACC-62): > 100 µM (inactive)
- GI50 (HT-29): > 100 µM (inactive)
- GI50 (OVCAR-3): > 100 µM (inactive)
- GI50 (HL-60): > 100 µM (inactive)
- GI50 (A549): > 100 µM (inactive)
- GI50 (SF-268): > 100 µM (inactive)
- GI50 (DMS-273): 54.6 µM (inactive)
- GI50 (LOX IMVI): > 100 µM (inactive)
- GI50 (SK-MEL-2): 60.5 µM (inactive)
- GI50 (SF-295): 70.6 µM (inactive)
- GI50 (HCC 2998): > 100 µM (inactive)
- GI50 (Malme-3M): > 100 µM (inactive)
- GI50 (DMS-114): > 100 µM (inactive)
- GI50 (RPMI-8226): 61 µM (inactive)
- GI50 (HOP-62): 22 µM (inactive)
- GI50 (OVCAR-4): > 100 µM (inactive)
- GI50 (EKVX): > 100 µM (inactive)
- GI50 (SNB-78): 70 µM (inactive)
- GI50 (CAKI-1): > 100 µM (inactive)
- GI50 (786-0): 44 µM (inactive)
- GI50 (SNB-19): > 100 µM (inactive)
- GI50 (A498): > 100 µM (inactive)
- GI50 (HOP-18): > 100 µM (inactive)
- GI50 (OVCAR-5): > 100 µM (inactive)

Reference: ChEMBL document CHEMBL1201862, “PubChem BioAssay data set” (2004)
